Assay results as given in PubChem BioAssay AID2060509 (Molecular Pharmacology Branch, DTP, NCI, 2025).

Test system: 485176-168-R4-J1-PDC spheroids with HUVEC/MSC, viability
Assay: Anticancer human tumor 485176-168-R4-J1-PDC patient-derived pancreatic adenocarcinoma cell line growth inhibition [GQUAD]
Details: for IC50: curve of first compound; for viability, T/C: stronger effect = lower value
From the text: DNA G-quadruplex Stabilizer Agents in Combinations in Complex Spheroids
A high-throughput screen of multi-cell type tumor spheroids was designed to identify active combinations of DNA G-quadruplex stabilizer agents and targeted small molecules. Complex spheroids include a stromal component modeled by human endothelial cells (HUVEC) and fibroblasts modeled by human mesenchymal stem cells (MSCs). The concentration ranges selected for each drug and investigational agent were based upon clinically achievable concentrations if the clinical Cmax of the agent was known.
Compounds. The drugs and investigational agents: pidnarulex (CX-5461; NSC782164), APTO-253 (NSC789042), BRACO-19 (NSC847499), peposertib (NSC802822), ceralasertib (NSC780249), elimusertib (NSC800525), camonsertib (NSC841442), AZD-1390 (NSC803789), olaparib (NSC753686), talazoparib (NSC767125), ART-558 (NSC835418), sotorasib (NSC818433), MRTX-1133 (NSC836407), SN-38 (NSC673596), topotecan (NSC609699), etoposide (NSC141540), doxorubicin (NSC123127), gemcitabine (NSC613327), 5-fluorouracil (NSC19893), paclitaxel (NSC125973), vemurafenib (NSC761431), panobinostat (NSC761190), R-306465 (JNJ-16241199; NSC773264), adavosertib (NSC754352), TP-3654 (NSC805149), carboplatin (NSC241240), KSQ-4279 (NSC840948), and staurosporine (NSC755774) were obtained from the National Cancer Institute (NCI) Developmental Therapeutics Program Chemical Repository (34). The FDA-approved anticancer drug set is available from the NCI Developmental Therapeutics Program. […] The stock solutions were prepared in dimethyl sulfoxide (DMSO, Sigma-Aldrich, St. Louis, MO, cat. D2650) at 800-fold the tested concentration and stored at -70 degrees C prior to their use. All drugs and investigational agents were tested over a range starting from a high concentration at or near the clinical Cmax and decreasing in half-log increments. If the clinical Cmax for an agent had not been determined, the highest concentration tested was 10 microM.
2.3 Cell Culture. All cells were maintained in an incubator at 37 degrees C and 5% CO2 with 95% humidity. The PDC lines were cultured according to standard operating procedures established by the NCI PDMR. All PDCs were thawed and cultured in Matrigel-coated flasks prepared with a working solution of 1X Ham's F-12 nutrient mix, without supplementation (Invitrogen, cat. 11765054), 100 U/mL penicillin-streptomycin (Invitrogen, cat. 15140122), and 2.5% Matrigel (Corning Inc., cat. 354248) for the first three passages. The 857933-349-R-J2-PDC line was cultured in 6C/Colon 1B media, which includes advanced DMEM/F-12 (Thermo Fisher Scientific, cat. 12634028), 10 mM HEPES (Thermo Fisher Scientific, cat. 15630080), 1X GlutaMAX supplement (Thermo Fisher Scientific, cat. 35050061), 0.1 mg/mL primocin (InvivoGen, cat. ant-pm-2), 10% defined fetal bovine serum, heat inactivated (HyClone Laboratories Inc., cat. SH30070.03HI), 50% L-WRN conditioned media (ATCC, cat. CRL-3276), 1.25 mM N-Acetyl-L-cysteine (Sigma-Aldrich, cat. A9165), 10 mM nicotinamide (Sigma-Aldrich, cat. N0636), 1X B-27 supplement (Thermo Fisher Scientific, cat. 17504044), 1X N-2 supplement (Thermo Fisher Scientific, cat. 17502048), 10 microM Y-27632 dihydrochloride (Tocris Bioscience, cat. 1254), and 50 ng/mL human EGF recombinant protein (Thermo Fisher Scientific, cat. PHG0311). The 485176-168-R4-J1-PDC line was cultured in Panc media, which includes all 6C/Colon 1B media components plus 100 ng/mL human FGF-10 (Thermo Fisher Scientific, cat. 100-26), 500 nM SB-431542 (Selleckchem, cat. S1067), and gastrin (Tocris, cat. 3006).
[…]

[1] = second compound 0.0316 µM, first compound 0.0316 µM
[2] = second compound 0.0316 µM, first compound 0.316 µM
[3] = second compound 0.1 µM, first compound 0.0316 µM
[4] = second compound 0.1 µM, first compound 0.316 µM
[5] = second compound 0.316 µM, first compound 0.0316 µM
[6] = second compound 0.316 µM, first compound 0.316 µM
[7] = second compound 1 µM, first compound 0.0316 µM
[8] = second compound 1 µM, first compound 0.316 µM
[9] = second compound 3.16 µM, first compound 0.0316 µM
[10] = second compound 3.16 µM, first compound 0.316 µM
[11] = second compound 10 µM, first compound 0.0316 µM
[12] = second compound 10 µM, first compound 0.316 µM
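Note: spheroids exposed to compounds for seven days before readout.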
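Throughout, for viability, T/C: percent viability relative to DMSO vehicle control wells as 100%.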

CC[C@@]1(O)C(=O)OCc2c1cc1n(c2=O)Cc2cc3c(CN(C)C)c(O)ccc3nc2-1 + CN(C)c1ccc(Nc2c3ccc(NC(=O)CCN4CCCC4)cc3nc3cc(NC(=O)CCN4CCCC4)ccc23)cc1
IC50 (second compound 0.0316 µM): 180 nM
IC50 (second compound 0.1 µM): 185 nM
IC50 (second compound 0.316 µM): 168 nM
IC50 (second compound 1 µM): 191 nM
IC50 (second compound 3.16 µM): 128 nM
IC50 (second compound 10 µM): 232 nM
viability, T/C (second compound 0.0316 µM, first compound 0.000999 µM): 97.9%
viability, T/C (second compound 0.0316 µM, first compound 0.00316 µM): 88.1%
viability, T/C (second compound 0.0316 µM, first compound 0.00999 µM): 83.8%
viability, T/C [1]: 90.6%
viability, T/C (second compound 0.0316 µM, first compound 0.0999 µM): 65%
viability, T/C [2]: 35.6%
viability, T/C (second compound 0.1 µM, first compound 0.000999 µM): 94.8%
viability, T/C (second compound 0.1 µM, first compound 0.00316 µM): 106%
viability, T/C (second compound 0.1 µM, first compound 0.00999 µM): 95.9%
viability, T/C [3]: 81%
viability, T/C (second compound 0.1 µM, first compound 0.0999 µM): 64.5%
viability, T/C [4]: 38.4%
viability, T/C (second compound 0.316 µM, first compound 0.000999 µM): 97.3%
viability, T/C (second compound 0.316 µM, first compound 0.00316 µM): 117%
viability, T/C (second compound 0.316 µM, first compound 0.00999 µM): 107%
viability, T/C [5]: 99.1%
viability, T/C (second compound 0.316 µM, first compound 0.0999 µM): 55.7%
viability, T/C [6]: 43.1%
viability, T/C (second compound 1 µM, first compound 0.000999 µM): 89.1%
viability, T/C (second compound 1 µM, first compound 0.00316 µM): 97.7%
viability, T/C (second compound 1 µM, first compound 0.00999 µM): 99.1%
viability, T/C [7]: 81.1%
viability, T/C (second compound 1 µM, first compound 0.0999 µM): 69.5%
viability, T/C [8]: 35.8%
viability, T/C (second compound 3.16 µM, first compound 0.000999 µM): 104%
viability, T/C (second compound 3.16 µM, first compound 0.00316 µM): 99.7%
viability, T/C (second compound 3.16 µM, first compound 0.00999 µM): 87.2%
viability, T/C [9]: 76.6%
viability, T/C (second compound 3.16 µM, first compound 0.0999 µM): 52.6%
viability, T/C [10]: 35.5%
viability, T/C (second compound 10 µM, first compound 0.000999 µM): 108%
viability, T/C (second compound 10 µM, first compound 0.00316 µM): 98.6%
viability, T/C (second compound 10 µM, first compound 0.00999 µM): 88.3%
viability, T/C [11]: 94.6%
viability, T/C (second compound 10 µM, first compound 0.0999 µM): 63.5%
viability, T/C [12]: 44%

COc1cc(C2c3cc4c(cc3C(OC3OC5COC(C)OC5C(O)C3O)C3COC(=O)C23)OCO4)cc(OC)c1O (centres undefined) + CN(C)c1ccc(Nc2c3ccc(NC(=O)CCN4CCCC4)cc3nc3cc(NC(=O)CCN4CCCC4)ccc23)cc1
IC50 (second compound 0.0316 µM): 340 nM
IC50 (second compound 0.1 µM): 476 nM
IC50 (second compound 0.316 µM): 474 nM
IC50 (second compound 1 µM): 412 nM
IC50 (second compound 3.16 µM): 333 nM
IC50 (second compound 10 µM): 303 nM
viability, T/C [1]: 87%
viability, T/C (second compound 0.0316 µM, first compound 0.1 µM): 74.7%
viability, T/C [2]: 38.9%
viability, T/C (second compound 0.0316 µM, first compound 1 µM): 39.6%
viability, T/C (second compound 0.0316 µM, first compound 3.16 µM): 30.1%
viability, T/C (second compound 0.0316 µM, first compound 10 µM): 9.84%
viability, T/C [3]: 89.6%
viability, T/C (second compound 0.1 µM, first compound 0.1 µM): 82.8%
viability, T/C [4]: 46.4%
viability, T/C (second compound 0.1 µM, first compound 1 µM): 41.2%
viability, T/C (second compound 0.1 µM, first compound 3.16 µM): 29.2%
viability, T/C (second compound 0.1 µM, first compound 10 µM): 12.1%
viability, T/C [5]: 98.8%
viability, T/C (second compound 0.316 µM, first compound 0.1 µM): 81.5%
viability, T/C [6]: 47.5%
viability, T/C (second compound 0.316 µM, first compound 1 µM): 42.2%
viability, T/C (second compound 0.316 µM, first compound 3.16 µM): 26.3%
viability, T/C (second compound 0.316 µM, first compound 10 µM): 10.1%
viability, T/C [7]: 90.6%
viability, T/C (second compound 1 µM, first compound 0.1 µM): 71.6%
viability, T/C [8]: 50.6%
viability, T/C (second compound 1 µM, first compound 1 µM): 39.1%
viability, T/C (second compound 1 µM, first compound 3.16 µM): 24.6%
viability, T/C (second compound 1 µM, first compound 10 µM): 9.92%
viability, T/C [9]: 75.5%
viability, T/C (second compound 3.16 µM, first compound 0.1 µM): 63.7%
viability, T/C [10]: 44.5%
viability, T/C (second compound 3.16 µM, first compound 1 µM): 39.5%
viability, T/C (second compound 3.16 µM, first compound 3.16 µM): 33.6%
viability, T/C (second compound 3.16 µM, first compound 10 µM): 12.8%
viability, T/C [11]: 95.5%
viability, T/C (second compound 10 µM, first compound 0.1 µM): 69.8%
viability, T/C [12]: 45.3%
viability, T/C (second compound 10 µM, first compound 1 µM): 36.9%
viability, T/C (second compound 10 µM, first compound 3.16 µM): 23.4%
viability, T/C (second compound 10 µM, first compound 10 µM): 10.2%
